Several values for one entry are separate records, joined by “and”; a condition that tells them apart may be missing. Equal entries are not always repeated.
Assays:
[1] = test system: HCT-116 human colon carcinoma cells; assay: Viability assay (LDH release), HCT-116; type: cell-based; details: for viability at 200 µg/mL: HCT-116, 48 h, read-out: Mean % of viable cells ± SD, HCT-116
Method in brief: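 HCT-116 human colon carcinoma cells were cultured for 24 h at 37 °C in a humidified 5% CO2 incubator. Samples diluted in Dulbecco’s Modified Eagle’s Medium with 10% FBS were then added. Lactate dehydrogenase released from damaged cells was measured in supernatants by ELISA end-point reading at 550 nm. Controls were 0.1% Triton X-100 (positive) and assay medium alone (negative).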

[2] = test system: caspase-3 gene; assay: qRT-PCR expressional level of caspase-3 gene; type: cell-based, human; details: 10 µg/mL, 24 h
Procedure: Therefore, in this study the expressional levels of caspase-3 as a major apoptosis effector were evaluated in 3a- and 3f-treated HCT-116 and LoVo cell cultures (10 µg/mL, for 24 h incubation), using qRT-PCR analysis.
Briefly, in a 25 mL flask (1 × 10^6 cells/flask), the human colon cancer cell lines (HCT-116 and LoVo) were grown for 24 h. After replacing the culture media with a medium containing 1% FBS for 24 h, the cells were treated with 10 µg/mL of each tested compound in 2 mL of fresh medium containing 1% FBS, or 0.25% DMSO, which was used as the negative control. The cells were adherent cells and they were detached using trypsin after being washed with ice-cold phosphate-buffered saline (PBS).
Primers specific for the Bax, Bcl-2 and Caspase-3 genes were designed using the primer blast (https://www.ncbi.nlm.nih.gov/tools/primer-blast/ accessed on 9 January 2023) software. The primers were used in the RT-qPCR analysis to amplify fragments of 100–200 bp in length (Table 11).
The RNeasy Mini Kit (Qiagen, Hilden, Germany) was used to extract the total RNA. The RNA purity, quality and quantity were checked using a Nanodrop 8000 spectrophotometer (Thermo Fisher Scientific, USA). The Hyperscript Kit (GeneAll, Seoul, Korea) and random hexamers (GeneAll, Seoul, Korea ) were used to reverse-transcript 1 µg of RNA from each sample into cDNA as described in the manufacturer’s protocol.
A QuantStudio 7Flex Detection System (Applied Biosystems, Thermo Fischer Scientific, Inc., USA) was used to measure the mRNA expression of Bax, Caspase-3 and Bcl-2. The reactions for the synthesis of cDNA were carried out using an iScript One-Step RT-PCR Kit with SYBR Green (cat no: 170–8892; Bio-Rad, Inc., Hercules, CA, USA). Briefly, primers (Table 10) were added to the reaction mixture at a final concentration of 10 pM. Thus, 5 µL of each cDNA sample were added to a […] PCR mixture consisting of 12.5 µL of 2 × iScript One-Step RT-PCR Kit with SYBR Green, 0.5 µL of primers for Bax, Caspase-3 and Bcl-2 as well as GAPDH (Macrogen, Seoul, Korea), and 7 µL RNase/DNase-free water (Qiagen, DE). The thermal cycling conditions for Bax, Caspase-3 and Bcl-2 were established as 5 min at 95 °C, followed by 40 cycles of 30 s at 95 °C and 30 s at 60 °C, and finally 10 s at 95 °C. The presence of a single melting temperature peak verified the specificity of each primer. The expression of a house-keeping gene, GAPDH, was used as an endogenous control for the current work.

[3] = Homo sapiens, HCT-116, from concentration–response curves
[4] = from concentration–response curves

Row | Structure (SMILES) | viability at 200 µg/mL ([1]; Homo sapiens) [%] | IC50 [1, 3] | IC50 [1, 4] [µM] | Expression level of caspase-3 gene (upregulated) ([2]; HCT-116, vs negative control) [fold] | Expression level of caspase-3 gene (upregulated) ([2]; LoVo, vs negative control) [fold]
1 | O=c1c2cc(Cl)ccc2[nH]c(=S)n1-c1cccc(C(F)(F)F)c1 [Compound 3a, 6-Chloro-2-thioxo-3-(3-trifluoromethyl-phenyl)-2,3-dihydro-1H-quinazolin-4-one] | 26.8 ± 1.26 | 298 µM and 106 µg/mL | 298 | 3.731 | 2.6026
2 | O=c1c2cc(Cl)ccc2[nH]c(=S)n1-c1ccc([N+](=O)[O-])cc1 [Compound 3f, 6-Chloro-3-(4-nitro-phenyl)-2-thioxo-2,3-dihydro-1H-quinazolin-4-one] | 4.67 ± 0.577 | 324 µM and 108 µg/mL | 324 | 6.071 | 6.9340

— paper PMC10610505, “Synthesis and Biological Evaluation of Some New 3-Aryl-2-thioxo-2,3-dihydroquinazolin-4(1H)-ones and 3-Aryl-2-(benzylthio)quinazolin-4(3H)-ones as Antioxidants; COX-2, LDHA, α-Glucosidase and α-Amylase Inhibitors; and Anti-Colon Carcinoma and Apoptosis-Inducing Agents” (Pharmaceuticals, 2023)
